Laboratory results reported in ChEMBL document CHEMBL1201862, “PubChem BioAssay data set” (2004).
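Interpolation was linear, between the two tested concentrations surrounding the appropriate level; five concentrations were tested over 48 hours in 96-well plates. GI50 is the concentration that inhibits growth by half.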 Activity calls are given as the source filed them. Cut-off read from the data, not from the text of the source: active = GI50 up to about 1.1 µM and inactive = higher.

How the values were obtained:
Test in all cases: growth of human tumour cells (NCI), 48 h
[1] = tested on: A498
[2] = tested on: HOP-18
[3] = tested on: CCRF-CEM
[4] = tested on: HT-29
[5] = tested on: HCT-15
[6] = tested on: DMS-114
[7] = tested on: SNB-75
[8] = tested on: SK-MEL-5
[9] = tested on: NCI-H460
[10] = tested on: HL-60
[11] = tested on: SF-539
[12] = tested on: SF-295
[13] = tested on: SR
[14] = tested on: IGROV-1
[15] = tested on: M14
[16] = tested on: SW-620
[17] = tested on: XF498
[18] = tested on: SNB-19
[19] = tested on: K562
[20] = tested on: OVCAR-4
[21] = tested on: HOP-92
[22] = tested on: HCT-116
[23] = tested on: COLO 205
[24] = tested on: TK-10
[25] = tested on: UACC-257
[26] = tested on: DLD-1
[27] = tested on: OVCAR-8
[28] = tested on: NCI-H23
[29] = tested on: SK-MEL-28
[30] = tested on: DMS-273
[31] = tested on: SK-OV-3
[32] = tested on: NCI-H522
[33] = tested on: EKVX
[34] = tested on: MOLT-4
[35] = tested on: KM12
[36] = tested on: OVCAR-3
[37] = tested on: HCC 2998
[38] = tested on: U-251
[39] = tested on: RXF 393
[40] = tested on: HOP-62
[41] = tested on: OVCAR-5
[42] = tested on: UO-31
[43] = tested on: UACC-62
[44] = tested on: KM-20L2
[45] = tested on: SN12C
[46] = tested on: A549
[47] = tested on: ACHN
[48] = tested on: RPMI-8226
[49] = tested on: SK-MEL-2
[50] = tested on: NCI-H226
[51] = tested on: LOX IMVI
[52] = tested on: M19-MEL
[53] = tested on: SF-268
[54] = tested on: SNB-78
[55] = tested on: LXFL 529
[56] = tested on: Malme-3M
[57] = tested on: CAKI-1
[58] = tested on: 786-0

C/C=C/CC(S(=O)(=O)c1ccccc1)S(=O)(=O)c1ccccc1
GI50 [1]: > 100 µM (inactive) | GI50 [2]: > 100 µM (inactive) | GI50 [3]: 87.1 µM (inactive) | GI50 [4]: > 100 µM (inactive) | GI50 [5]: 60 µM | GI50 [6]: 14 µM (inactive) | GI50 [7]: 32.7 µM (inactive) | GI50 [8]: > 100 µM (inactive) | GI50 [9]: > 100 µM (inactive) | GI50 [10]: > 100 µM (inactive) | GI50 [11]: > 100 µM (inactive) | GI50 [12]: > 100 µM (inactive) | GI50 [13]: > 100 µM (inactive) | GI50 [14]: > 100 µM (inactive) | GI50 [15]: > 100 µM (inactive) | GI50 [16]: > 100 µM (inactive) | GI50 [17]: > 100 µM (inactive) | GI50 [18]: > 100 µM (inactive) | GI50 [19]: > 100 µM (inactive) | GI50 [20]: > 100 µM (inactive) | GI50 [21]: > 100 µM (inactive) | GI50 [22]: > 100 µM (inactive) | GI50 [23]: > 100 µM (inactive) | GI50 [24]: > 100 µM (inactive) | GI50 [25]: > 100 µM (inactive) | GI50 [26]: > 100 µM (inactive) | GI50 [27]: > 100 µM (inactive) | GI50 [28]: > 100 µM (inactive) | GI50 [29]: > 100 µM (inactive) | GI50 [30]: > 100 µM (inactive) | GI50 [31]: > 100 µM (inactive) | GI50 [32]: 12 µM (inactive) | GI50 [33]: > 100 µM (inactive) | GI50 [34]: > 100 µM (inactive) | GI50 [35]: > 100 µM (inactive) | GI50 [36]: > 100 µM (inactive) | GI50 [37]: > 100 µM (inactive) | GI50 [38]: 33.3 µM (inactive) | GI50 [39]: > 100 µM (inactive) | GI50 [40]: 85.5 µM (inactive) | GI50 [41]: > 100 µM (inactive) | GI50 [42]: > 100 µM (inactive) | GI50 [43]: 36.1 µM (inactive) | GI50 [44]: > 100 µM (inactive) | GI50 [45]: > 100 µM (inactive) | GI50 [46]: > 100 µM (inactive) | GI50 [47]: > 100 µM (inactive) | GI50 [48]: 95.3 µM (inactive) | GI50 [49]: > 100 µM (inactive) | GI50 [50]: > 100 µM (inactive) | GI50 [51]: > 100 µM (inactive)

CC12O[Te]34OC1(C)C(C)(O3)C2(C)O4
GI50 [1]: > 8.75 µM (inactive) | GI50 [2]: 17.5 µM (inactive) | GI50 [4]: 13.2 µM (inactive) | GI50 [5]: 17.4 µM | GI50 [52]: 13.5 µM (inactive) | GI50 [6]: 13.6 µM (inactive) | GI50 [7]: > 8.75 µM (inactive) | GI50 [9]: 15.3 µM (inactive) | GI50 [11]: 15.9 µM (inactive) | GI50 [12]: 3.86 µM (inactive) | GI50 [13]: 7.66 µM (inactive) | GI50 [53]: 11.8 µM (inactive) | GI50 [14]: 11.9 µM (inactive) | GI50 [15]: 16.5 µM (inactive) | GI50 [54]: 25.5 µM (inactive) | GI50 [16]: 14.8 µM (inactive) | GI50 [55]: 14.6 µM (inactive) | GI50 [18]: 14.6 µM (inactive) | GI50 [20]: 14.6 µM (inactive) | GI50 [22]: 11.9 µM (inactive) | GI50 [23]: 16.9 µM (inactive) | GI50 [24]: 17 µM (inactive) | GI50 [25]: 17.4 µM (inactive) | GI50 [26]: 15.3 µM (inactive) | GI50 [56]: 18.1 µM (inactive) | GI50 [27]: 12.5 µM (inactive) | GI50 [57]: 9.71 µM (inactive) | GI50 [28]: 16.4 µM (inactive) | GI50 [29]: 12 µM (inactive) | GI50 [30]: 16.4 µM (inactive) | GI50 [31]: 22 µM (inactive) | GI50 [32]: 11.8 µM (inactive) | GI50 [33]: 20.1 µM (inactive) | GI50 [58]: 15.3 µM (inactive) | GI50 [34]: 6.47 µM (inactive) | GI50 [35]: 14.8 µM (inactive) | GI50 [36]: 17.9 µM (inactive) | GI50 [37]: 0.016 µM (active) | GI50 [38]: 3.77 µM (inactive) | GI50 [39]: 14.8 µM (inactive) | GI50 [40]: 20.4 µM (inactive) | GI50 [41]: 12.2 µM (inactive) | GI50 [42]: 11.8 µM (inactive) | GI50 [43]: 30.1 µM (inactive) | GI50 [44]: 32.4 µM (inactive) | GI50 [45]: 10.9 µM (inactive) | GI50 [46]: 12.3 µM (inactive) | GI50 [47]: 14.8 µM (inactive) | GI50 [49]: 15.7 µM (inactive) | GI50 [50]: 16.9 µM (inactive) | GI50 [51]: 3.56 µM (inactive)

C/C(=N\NC(=O)c1ccccc1O)c1cccc(/C(C)=N/NC(=O)c2ccccc2O)n1.[Cl-].[Cl-].[Zn+2]
GI50 [5]: 7.35 µM | GI50 [6]: 2.97 µM (inactive) | GI50 [7]: 17.9 µM (inactive) | GI50 [8]: 10.4 µM (inactive) | GI50 [12]: 9.98 µM (inactive) | GI50 [13]: 1.44 µM (inactive) | GI50 [53]: 2.11 µM (inactive) | GI50 [15]: 7.96 µM (inactive) | GI50 [16]: 5.85 µM (inactive) | GI50 [17]: 21.2 µM (inactive) | GI50 [55]: 1.34 µM (inactive) | GI50 [21]: 10.6 µM (inactive) | GI50 [24]: 10.2 µM (inactive) | GI50 [56]: 10.8 µM (inactive) | GI50 [27]: 2.18 µM (inactive) | GI50 [31]: 6.15 µM (inactive) | GI50 [33]: 19.6 µM (inactive) | GI50 [34]: 1.59 µM (inactive) | GI50 [35]: 6.25 µM (inactive) | GI50 [37]: 2.01 µM (inactive) | GI50 [39]: 8.05 µM (inactive) | GI50 [43]: 2.11 µM (inactive) | GI50 [46]: 10.8 µM (inactive) | GI50 [47]: 2.17 µM (inactive) | GI50 [49]: 15.2 µM (inactive) | GI50 [51]: 1.37 µM (inactive)
